{"source": "patent US20240092835A1", "about": "“NOVEL PEPTIDES CAPABLE OF ALTERING NK CELL ACTIVITY” (Massachusetts Institute of Technology, priority 2022, published 2024)", "key": {"[1]": {"target": "CD94/NKG2A (Homo sapiens, UniProt P26715+Q13241)", "sequence (P26715 94-233 limits assumed)": "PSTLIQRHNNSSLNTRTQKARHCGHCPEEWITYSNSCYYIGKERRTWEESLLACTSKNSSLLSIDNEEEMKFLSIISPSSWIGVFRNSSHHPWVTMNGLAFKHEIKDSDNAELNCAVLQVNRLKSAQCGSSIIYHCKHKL", "sequence (Q13241 32-179 limits assumed)": "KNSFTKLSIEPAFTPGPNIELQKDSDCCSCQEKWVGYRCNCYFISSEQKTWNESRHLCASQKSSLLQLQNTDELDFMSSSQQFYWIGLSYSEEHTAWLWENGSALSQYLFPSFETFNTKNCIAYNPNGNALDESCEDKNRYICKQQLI", "experiment": "Steady-state surface plasmon resonance of peptide-HLA-E complex with CD94/NKG2A", "format": "binding", "settings": "for Binding of peptide-HLA-E complexes to CD94/NKG2A normalized to a theoretical Rmax: steady-state SPR"}, "[2]": {"tested_on": "NKG2A−/NKG2C+ NK cells", "experiment": "NKG2A-/NKG2C+ NK cell activation with peptide and RMA-S cells expressing HLA-E", "format": "cell-based", "settings": "RMA-S cells expressing HLA-E, NKG2A−/NKG2C+ NK cells", "method": "An antigen processing-defective lymphoma cell line (RMA-S), with a low-level expression of HLA-E, were incubated with the novel peptides to determine the inhibitory strength on NKG2A−/NKG2C+NK cells relative to positive control sequences with differential effects ([…] (SEQ ID NO: 19)/VMAPRTLFL (SEQ ID NO: 18)). The effects of the peptides on NK cell inhibition were determined by measuring four markers of NK cell activation (CD107a, IFNG, TNF, CCL3) in NKG2A−/NKG2C+NK cells (FIGS. 2A-2D). Activation was indicated by an increase in percent cells positive for cell surface markers."}, "[3]": {"tested_on": "NKG2A−/NKG2C+ NK cells", "experiment": "NK cell activation markers in NKG2A-/NKG2C+ NK cells incubated with peptide and K562 expressing HLA-E (activation)", "format": "cell-based, human", "settings": "for effect on NKG2A−/NKG2C+ NK cell activation (in words): K562 expressing HLA-E, CD107a, IFNG, TNF, CCL3; for percentage of CCL3+ NK cells / percentage of CD107+ NK cells / percentage of IFNG+ NK cells / percentage of TNF+ NK cells: NKG2A-/NKG2C+ NK cells, K562/HLA-E", "outline": "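Percent-positive cells for NK activation surface markers were measured after NK cells met peptide-treated K562 cells expressing HLA-E. A decrease in that fraction was scored as inhibition and an increase as activation; NKG2A−/NKG2C− cells served as controls.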"}}, "note": "Where no end group is shown, it is not given here."}
{"sequence": "TGPWRSLWI [human3, TGPWRSLWI]", "values": [{"measurement": "binding of peptide-HLA-E complex to CD94/NKG2A normalized to a fitted Rmax", "setting": "[1]; CD94/NKG2A concentration 0 μM", "value": 0.013}, {"measurement": "binding of peptide-HLA-E complex to CD94/NKG2A normalized to a fitted Rmax", "setting": "[1]; CD94/NKG2A concentration 0.1 μM", "value": 0.015}, {"measurement": "binding of peptide-HLA-E complex to CD94/NKG2A normalized to a fitted Rmax", "setting": "[1]; CD94/NKG2A concentration 0.2 μM", "value": 0.019}, {"measurement": "binding of peptide-HLA-E complex to CD94/NKG2A normalized to a fitted Rmax", "setting": "[1]; CD94/NKG2A concentration 0.4 μM", "value": 0.030}, {"measurement": "binding of peptide-HLA-E complex to CD94/NKG2A normalized to a fitted Rmax", "setting": "[1]; CD94/NKG2A concentration 0.8 μM", "value": 0.051}, {"measurement": "binding of peptide-HLA-E complex to CD94/NKG2A normalized to a fitted Rmax", "setting": "[1]; CD94/NKG2A concentration 1.6 μM", "value": 0.086}, {"measurement": "binding of peptide-HLA-E complex to CD94/NKG2A normalized to a fitted Rmax", "setting": "[1]; CD94/NKG2A concentration 3.2 μM", "value": 0.145}, {"measurement": "binding of peptide-HLA-E complex to CD94/NKG2A normalized to a fitted Rmax", "setting": "[1]; CD94/NKG2A concentration 6.4 μM", "value": 0.231}, {"measurement": "binding of peptide-HLA-E complex to CD94/NKG2A normalized to a fitted Rmax", "setting": "[1]; CD94/NKG2A concentration 12.8 μM", "value": 0.336}, {"measurement": "binding of peptide-HLA-E complex to CD94/NKG2A normalized to a fitted Rmax", "setting": "[1]; CD94/NKG2A concentration 25.6 μM", "value": 0.472}, {"measurement": "binding of peptide-HLA-E complex to CD94/NKG2A normalized to a fitted Rmax", "setting": "[1]; CD94/NKG2A concentration 51.2 μM", "value": 0.639}, {"measurement": "binding of peptide-HLA-E complex to CD94/NKG2A normalized to a fitted Rmax", "setting": "[1]; CD94/NKG2A concentration 102.4 μM", "value": 0.827}, {"measurement": "Binding of peptide-HLA-E complexes to CD94/NKG2A normalized to a theoretical Rmax", "setting": "[1]; CD94/NKG2A analyte concentration 0.000 μM", "value": 0.004}, {"measurement": "Binding of peptide-HLA-E complexes to CD94/NKG2A normalized to a theoretical Rmax", "setting": "[1]; CD94/NKG2A analyte concentration 0.100 μM", "value": 0.005}, {"measurement": "Binding of peptide-HLA-E complexes to CD94/NKG2A normalized to a theoretical Rmax", "setting": "[1]; CD94/NKG2A analyte concentration 0.200 μM", "value": 0.006}, {"measurement": "Binding of peptide-HLA-E complexes to CD94/NKG2A normalized to a theoretical Rmax", "setting": "[1]; CD94/NKG2A analyte concentration 0.400 μM", "value": 0.009}, {"measurement": "Binding of peptide-HLA-E complexes to CD94/NKG2A normalized to a theoretical Rmax", "setting": "[1]; CD94/NKG2A analyte concentration 0.800 μM", "value": 0.015}, {"measurement": "Binding of peptide-HLA-E complexes to CD94/NKG2A normalized to a theoretical Rmax", "setting": "[1]; CD94/NKG2A analyte concentration 1.600 μM", "value": 0.026}, {"measurement": "Binding of peptide-HLA-E complexes to CD94/NKG2A normalized to a theoretical Rmax", "setting": "[1]; CD94/NKG2A analyte concentration 3.200 μM", "value": 0.044}, {"measurement": "Binding of peptide-HLA-E complexes to CD94/NKG2A normalized to a theoretical Rmax", "setting": "[1]; CD94/NKG2A analyte concentration 6.400 μM", "value": 0.070}, {"measurement": "Binding of peptide-HLA-E complexes to CD94/NKG2A normalized to a theoretical Rmax", "setting": "[1]; CD94/NKG2A analyte concentration 12.800 μM", "value": 0.102}, {"measurement": "Binding of peptide-HLA-E complexes to CD94/NKG2A normalized to a theoretical Rmax", "setting": "[1]; CD94/NKG2A analyte concentration 25.600 μM", "value": 0.143}, {"measurement": "Binding of peptide-HLA-E complexes to CD94/NKG2A normalized to a theoretical Rmax", "setting": "[1]; CD94/NKG2A analyte concentration 51.200 μM", "value": 0.194}, {"measurement": "Binding of peptide-HLA-E complexes to CD94/NKG2A normalized to a theoretical Rmax", "setting": "[1]; CD94/NKG2A analyte concentration 102.400 μM", "value": 0.250}, {"measurement": "increase in CCL3+ NK cells (in words)", "setting": "[2]", "value": "slight increases"}, {"measurement": "increase in CD107a+ NK cells (in words)", "setting": "[2]", "value": "slight increases"}, {"measurement": "increase in IFNG+ NK cells (in words)", "setting": "[2]", "value": "no increase"}, {"measurement": "increase in TNF+ NK cells (in words)", "setting": "[2]", "value": "no increase"}, {"measurement": "effect on NKG2A−/NKG2C+ NK cell activation (in words)", "setting": "[3]; listed as SEQ ID NO. 2", "value": "activate"}, {"measurement": "effect on NKG2A−/NKG2C+ NK cell activation (in words)", "setting": "[3]; listed as h3", "value": "activated"}, {"measurement": "percentage of CCL3+ NK cells", "setting": "[3]; Trial 1", "value": 60.9, "unit": "%"}, {"measurement": "percentage of CD107+ NK cells", "setting": "[3]; Trial 1", "value": 50.7, "unit": "%"}, {"measurement": "percentage of IFNG+ NK cells", "setting": "[3]; Trial 1", "value": 27.8, "unit": "%"}, {"measurement": "percentage of TNF+ NK cells", "setting": "[3]; Trial 1", "value": 19.1, "unit": "%"}, {"measurement": "percentage of CCL3+ NK cells", "setting": "[3]; Trial 2", "value": 75.8, "unit": "%"}, {"measurement": "percentage of CD107+ NK cells", "setting": "[3]; Trial 2", "value": 63.4, "unit": "%"}, {"measurement": "percentage of IFNG+ NK cells", "setting": "[3]; Trial 2", "value": 36.4, "unit": "%"}, {"measurement": "percentage of TNF+ NK cells", "setting": "[3]; Trial 2", "value": 24.8, "unit": "%"}, {"measurement": "percentage of CCL3+ NK cells", "setting": "[3]; Trial 3", "value": 75.7, "unit": "%"}, {"measurement": "percentage of CD107+ NK cells", "setting": "[3]; Trial 3", "value": 73.9, "unit": "%"}, {"measurement": "percentage of IFNG+ NK cells", "setting": "[3]; Trial 3", "value": 55.4, "unit": "%"}, {"measurement": "percentage of TNF+ NK cells", "setting": "[3]; Trial 3", "value": 47.1, "unit": "%"}, {"measurement": "percentage of CCL3+ NK cells", "setting": "[3]; Trial 4", "value": 64.5, "unit": "%"}, {"measurement": "percentage of CD107+ NK cells", "setting": "[3]; Trial 4", "value": 62.3, "unit": "%"}, {"measurement": "percentage of IFNG+ NK cells", "setting": "[3]; Trial 4", "value": 46.9, "unit": "%"}, {"measurement": "percentage of TNF+ NK cells", "setting": "[3]; Trial 4", "value": 37.4, "unit": "%"}, {"measurement": "percentage of CCL3+ NK cells", "setting": "[3]; Trial 5", "value": 65.7, "unit": "%"}, {"measurement": "percentage of CD107+ NK cells", "setting": "[3]; Trial 5", "value": 61, "unit": "%"}, {"measurement": "percentage of IFNG+ NK cells", "setting": "[3]; Trial 5", "value": 43.5, "unit": "%"}, {"measurement": "percentage of TNF+ NK cells", "setting": "[3]; Trial 5", "value": 37.7, "unit": "%"}, {"measurement": "percentage of CCL3+ NK cells", "setting": "[3]; Trial 6", "value": 46, "unit": "%"}, {"measurement": "percentage of CD107+ NK cells", "setting": "[3]; Trial 6", "value": 39.5, "unit": "%"}]}
